Results published in patent US20150315146A1, “USE OF SUBSTITUTED 1-(ARYL ETHYNYL)-, 1-(HETEROARYL ETHYNYL)-, 1-(HETEROCYCLYL ETHYNYL)- AND 1-(CYCLOALKENYLETHYNYL)-BICYCLOALKANOLS AS ACTIVE AGENTS AGAINST ABIOTIC PLANT STRESS” (BAYER CROPSCIENCE AG, priority 2012, published 2015).

How the values were obtained:
Assay in all cases: Drought stress test on potted crop plants in greenhouse, spray application, efficacy from damage values
Type in all cases: in vivo
[1] = system: Brassica napus (BRSNS); settings: spray at 600 l/ha water, averages from one to three trials
Method: (§1) Seeds of monocotyledonous and dicotyledonous crop plants were laid out in sandy loam in wood-fiber pots, covered with soil or sand and cultivated in a greenhouse under good growth conditions. The test plants were treated at the early leaf stage (BBCH10-BBCH13). To assure uniform water supply before commencement of stress, the potted plants were supplied with water by dam irrigation prior to substance application. The compounds according to the invention, formulated in the form of wettable powders (WP), were sprayed onto the green parts of the plants as an aqueous suspension at an equivalent water application rate of 600 l/ha with addition of 0.2% wetting agent (e.g. agrotin). Substance application was followed immediately by stress treatment of the plants. For this purpose, the pots were transferred into plastic inserts in order to prevent them from subsequently drying out too quickly. Drought stress was induced by gradual drying out under the following conditions: “Day”: 14 hours with illumination at 26° C. “Night”: 10 hours without illumination at 18° C. The duration of the respective stress phases was guided mainly by the state of the untreated, stressed control plants and thus varied from crop to crop. It was ended (by re-irrigating and transfer to a greenhouse with good growth conditions) as soon as irreversible damage was observed on the untreated, stressed control plants. In the case of dicotyledonous crops, for example oilseed rape and soya, the duration of the drought stress phase varied between 3 and 6 days, in the case of monocotyledonous crops, for example wheat, barley or corn, between 6 and 11 days. The end of the stress phase was followed by an approx. 5-7-day recovery phase, during which the plants were once again kept under good growth conditions in a greenhouse. In order to rule out any influence of the effects observed by any fungicidal or insecticidal action of the test compounds, it was additionally ensured that the tests proceeded without fungal infection or insect infestation. After the recovery phase had ended, the intensities of damage were analyzed in visual comparison to untreated, unstressed controls of the same age. The intensity of damage was first recorded as a percentage (100%=plants have died, 0%=like control plants). These values were then used to calculate the efficacy of the test compounds (=percentage reduction in the intensity of damage as a result of substance application) by the following formula: [formula] EF: efficacy (%) DVus: damage value of the untreated, stressed control DVts: damage value of the plants treated with test compound In each trial, 3 pots per crop and dosage were treated and evaluated; the resulting efficacies are thus averages. The values in tables A-1 to A-3 below are again averages from one to three independent trials. BRSNS=Brassica napus TRZAS=Triticum aestivum ZEAMX=Zea mays

[2] = system: Triticum aestivum (TRZAS); settings: topical, percentage reduction in the intensity of damage, read-out: EF (TRZAS) efficacy; for pest or weed control at 250 g/ha: dosage 250 g/ha
Method: as §1

[3] = system: Zea mays (ZEAMX); settings: percentage reduction in the intensity of damage
Method: as §1

COC(=O)c1ccccc1C#CC1(O)C2CC3CC(C2)CC1C3 (stereo not drawn) [I.19-30]
EF (BRSNS): efficacy = percentage reduction in the intensity of damage as a result of substance application ([1]; dosage 25 g/ha): >5% | pest or weed control at 250 g/ha [2]: > 5%

COC(=O)c1ccccc1C#CC1(O)C2CCC(C2)C12CC2 (stereo not drawn) [I.29-26]
pest or weed control at 25 g/ha ([2]; dosage 25 g/ha): > 5%

CC12CCC(C1)C(C)(C)C2(O)C#Cc1ccccc1NS(C)(=O)=O (stereo not drawn) [I.1-88]
EF (BRSNS): efficacy = percentage reduction in the intensity of damage as a result of substance application ([1]; dosage 250 g/ha): >5%

COC(=O)c1ccccc1C#CC1(O)C2(C)CCC(C2)C1(C)C (stereo not drawn) [I.1-116]
EF (ZEAMX) efficacy ([3]; dosage 25 g/ha): >5% | EF (BRSNS): efficacy = percentage reduction in the intensity of damage as a result of substance application ([1]; dosage 25 g/ha): >5% | pest or weed control at 250 g/ha [2]: > 5%

COC(=O)c1ccccc1C#CC1(O)C(C)CCC2C1C2(C)C (stereo not drawn) [I.35-26]
EF (ZEAMX) efficacy ([3]; dosage 250 g/ha): >5% | pest or weed control at 250 g/ha [2]: > 5%

CC(=O)Oc1ccccc1C#CC1(O)C2(C)CCC(C2)C1(C)C (stereo not drawn) [I.1-79]
EF (ZEAMX) efficacy ([3]; dosage 25 g/ha): >5% | EF (BRSNS): efficacy = percentage reduction in the intensity of damage as a result of substance application ([1]; dosage 250 g/ha): >5% | pest or weed control at 250 g/ha [2]: > 5%

CC12CCC(C1)C(C)(C)C2(O)C#Cc1ccccc1CC#N (stereo not drawn) [I.1-74]
EF (ZEAMX) efficacy ([3]; dosage 250 g/ha): >5% | EF (BRSNS): efficacy = percentage reduction in the intensity of damage as a result of substance application ([1]; dosage 250 g/ha): >5% | pest or weed control at 250 g/ha [2]: > 5%

CC12CCC(C1)C(C)(C)C2(O)C#Cc1ccccc1F (stereo not drawn) [I.1-1]
EF (ZEAMX) efficacy ([3]; dosage 250 g/ha): >5% | EF (BRSNS): efficacy = percentage reduction in the intensity of damage as a result of substance application ([1]; dosage 25 g/ha): >5% | pest or weed control at 250 g/ha [2]: > 5%

COC(=O)c1cc(C)ccc1C#CC1(O)CC2CCC1C2 (stereo not drawn) [I.21-33]
EF (ZEAMX) efficacy ([3]; dosage 250 g/ha): >5% | EF (BRSNS): efficacy = percentage reduction in the intensity of damage as a result of substance application ([1]; dosage 250 g/ha): >5% | pest or weed control at 250 g/ha [2]: > 5%
